Results as given in EP0877740B1, “THIOL DERIVATIVES WITH METALLOPEPTIDASE INHIBITORY ACTIVITY” (ZAMBON GROUP S.p.A., priority 1995, dated 1997).

Molecular target: T1, NEP (Rattus norvegicus, UniProt P07861)
T1 sequence (P07861 1-750): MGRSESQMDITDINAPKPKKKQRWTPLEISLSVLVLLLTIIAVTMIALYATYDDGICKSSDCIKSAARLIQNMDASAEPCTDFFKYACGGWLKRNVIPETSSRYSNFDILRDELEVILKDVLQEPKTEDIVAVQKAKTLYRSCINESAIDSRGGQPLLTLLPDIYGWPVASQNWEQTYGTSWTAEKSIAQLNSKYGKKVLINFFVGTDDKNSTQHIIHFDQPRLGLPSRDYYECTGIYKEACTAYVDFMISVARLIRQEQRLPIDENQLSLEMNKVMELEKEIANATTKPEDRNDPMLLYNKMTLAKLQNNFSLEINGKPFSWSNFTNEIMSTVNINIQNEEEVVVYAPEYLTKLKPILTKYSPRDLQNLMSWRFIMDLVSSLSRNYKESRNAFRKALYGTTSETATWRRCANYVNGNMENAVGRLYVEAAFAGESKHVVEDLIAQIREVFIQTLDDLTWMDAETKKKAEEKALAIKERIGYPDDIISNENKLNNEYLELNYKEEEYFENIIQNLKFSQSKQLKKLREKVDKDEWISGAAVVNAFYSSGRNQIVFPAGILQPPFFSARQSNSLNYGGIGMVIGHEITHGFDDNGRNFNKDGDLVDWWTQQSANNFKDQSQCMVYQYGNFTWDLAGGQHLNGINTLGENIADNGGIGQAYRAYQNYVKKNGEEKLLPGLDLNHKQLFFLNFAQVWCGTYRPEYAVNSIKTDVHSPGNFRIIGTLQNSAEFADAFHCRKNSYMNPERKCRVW
Assay: In vitro NEP-inhibitory activity in rat kidney cortex membranes ([3H][Leu5]-enkephaline hydrolysis)
Format: biochemical
Design: Kidneys were removed from male Sprague-Dawley rats weighing approximately 300 g; from tissue; host or cells: rat kidney cortex membranes (male Sprague-Dawley)
Conditions: [3H][Leu5]-enkephaline 15 nM, 30°C
Protocol: The NEP-inhibitory activity was evaluated in rat kidney cortex membranes prepared according to the procedure described by T. Maeda et al. in Biochim. Biophys.
Kidneys were removed from male Sprague-Dawley rats weighing approximately 300 g and kept at 4°C.
Kidney cortex was carefully dissected, finely minced and suspended in a homogenization buffer (10 mM sodium phosphate pH 7.4 containing 1 mM MgCl2, 30 mM NaCl, 0.02% NaN3) 1:15 weight/volume.
The tissue was then cold homogenized for 30 seconds using an Ultra-Turrax homogenizer.
The membranes were collected from the buffer/sucrose interface, washed twice with 50 mM TRIS/HCl buffer (pH 7.4) and resuspended into the same buffer for storage in small aliquots at -80°C until use.
The NEP-inhibitory activity was evaluated by using the method described by C.
Aliquots of the membrane suspension prepared as above described (concentration 5 µg/ml of proteins) were preincubated in the presence of an aminopeptidase inhibitor (Bestatin - 1 mM) for 10 minutes at 30°C.
Incubation (20 minutes at 30°C) was stopped by adding HCI 0.1M (100 µl).
The formation of the metabolite [^3H]Tyr-Gly-Gly was quantified by chromatography on polystyrene columns (Porapak Q).
The percentage of inhibition of the metabolite formation in the membrane preparations treated with the compounds of formula I and with the comparative compounds with respect to the untreated membrane preparations was expressed as IC50 (nM) value.

Structure (SMILES): O=C(N[C@@H](Cc1ccc(-c2nccs2)cc1)C(=O)O)[C@@H](CS)Cc1ccccc1 [Compound 16, N-[(2S)-3-mercapto-2-phenylmethylpropionyl]-4-(2-thiazolyl)-L-phenylalanine]
- IC50: 1.8 nM
